Experiment [1] addresses T1, human ROCKα/ROCKII mix (Homo sapiens, UniProt O75116).
T1 construct: purchased Upstate Biotechnology 14-451
Kind of experiment: Biochemical assay for ROCK (fluorescence polarization, ROCK IMAP Kit). As for the experimental part:
The compounds were tested for inhibition of human ROCKα/ROCKII mix.
The inhibition assays were performed with a fluorescence polarization (FP) assay using the commercially available ROCK IMAP Kit from Molecular Devices (Product ID. No. R8093), essentially in accordance with the protocol supplied by the manufacturer. […] The enzyme mix ROCKα/ROCKII was obtained from Upstate Biotechnology (Product ID No 14-451).
In summary, the compound was screened in the wells of a 384 well plate for enzymatic inhibition with concentrations varying from 100 μM to 0.3 nM using a stepwise 3 (or 2)-fold dilution.
To perform the assay, 1 μl of a solution of the compound to be tested in DMSO (at each concentration) was added to 2 μl of a solution of the enzyme in 10 mM Tris-HCl , 10 mM MgCl2, 0.1% BSA, 0.05% NaN3, pH 7.2. The final concentration of the enzyme was 2.6 nM.
After incubating for 30 minutes at room temperature, 2 μl of a mixture of ATP and the protein substrate in 10 mM Tris-HCl, 10 mM MgCl2, 0.1% BSA, 0.05% NaN3, pH 7.2 was added. The final concentration of the ATP was 10 μM and final concentration of protein substrate was 0.2 μM.
After incubating for 60 minutes at room temperature, 12 μl of the IMAP Binding Solution (mix of the IMAP Binding Buffer A (1×) and the IMAP Binding Reagent (from the ROCK IMAP kit)) was added.
The mixture thus obtained (total volume: 17 μl) was incubated for 60 minutes at room temperature, upon which the fluorescence polarization was measured using an automated plate reader (Perkin Elmer, Model Envision 2100-0010 HTS) with FP filters: excitation filter FITC FP 480 and emission filters FITC FP P-pol 535 and FITC FP S-pol 535 (Perkin-Elmer). The results were fitted to a curve using the XL-Fit algorithm and IC50 values were calculated for each fitted curve, again using the XL-Fit algorithm.
Background: In fluorescence polarisation assays a small probe gives low polarisation when free and higher when bound to something large.

Experiment [2] has as its target T2, PKC epsilon (Homo sapiens, UniProt Q02156).
T2 construct: purchased Invitrogen P2282
T2 sequence (Q02156 1-737): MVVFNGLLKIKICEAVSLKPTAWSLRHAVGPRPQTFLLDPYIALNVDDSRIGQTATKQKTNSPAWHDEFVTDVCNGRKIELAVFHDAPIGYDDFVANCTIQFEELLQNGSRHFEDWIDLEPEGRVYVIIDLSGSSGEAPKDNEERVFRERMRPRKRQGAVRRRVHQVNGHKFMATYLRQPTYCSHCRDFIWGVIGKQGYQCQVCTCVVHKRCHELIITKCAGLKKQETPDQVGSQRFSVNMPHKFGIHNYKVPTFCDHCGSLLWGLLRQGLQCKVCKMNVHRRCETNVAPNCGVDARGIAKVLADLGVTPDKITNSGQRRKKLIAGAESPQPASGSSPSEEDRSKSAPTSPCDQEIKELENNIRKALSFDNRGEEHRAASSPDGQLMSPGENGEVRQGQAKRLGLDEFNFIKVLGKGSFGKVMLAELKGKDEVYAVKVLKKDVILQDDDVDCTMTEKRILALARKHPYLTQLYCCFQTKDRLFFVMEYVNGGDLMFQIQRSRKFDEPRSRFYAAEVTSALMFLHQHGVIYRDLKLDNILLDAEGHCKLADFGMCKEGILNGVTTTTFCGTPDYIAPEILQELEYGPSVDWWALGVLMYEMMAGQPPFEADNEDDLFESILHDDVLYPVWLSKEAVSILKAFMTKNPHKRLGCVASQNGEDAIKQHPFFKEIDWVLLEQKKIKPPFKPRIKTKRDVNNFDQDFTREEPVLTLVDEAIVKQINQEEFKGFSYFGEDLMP
The experiment in a line: Biochemical assay for PKC epsilon (fluorescence polarization, Protein Kinase C Assay Kit, Red). The following applies: read-out: IC50 μM PKCε. As for the experimental part: The compounds were tested for inhibition of PKC epsilon.
The inhibition assays were performed with a fluorescence polarization (FP) assay using the commercially available Protein Kinase C Assay Kit, Red, from Invitrogen (Product ID. No. P2941), essentially in accordance with the protocol supplied by the manufacturer. […] The isozyme PKC epsilon was also obtained from Invitrogen (Product ID No. P2282).
Staurosporine was used as a positive control (2 μM).
To perform the assay, 2 μl of a solution of the compound to be tested in DMSO (at each concentration) was added to 6 μl of a solution of the enzyme in 10 mM HEPES, 5 mM dithiotreitol, 0.1% Triton X-100, pH 7.4. The final concentration of the enzymes was 10 ng/ml.
After incubating for 30 minutes at room temperature, 4 μl of a mixture of ATP and the protein substrate in 60 mM HEPES (pH7.4), 15 mM MgCl2, 0.3 mM CaCl2, 0.06% NP40 was added.
After incubating for 80 minutes at room temperature, 3 μl of a mix solution of 500 mM EDTA (stop solution) and the Rhodamine-based PKC Red Tracer (from the Protein Kinase C Assay Kit) in BGG/phosphate buffer (pH7.4) with 0.02% NaN3 and 0.1% Triton X-100 was added and 5 μl of a the Anti-Phosphoserine antibody (also from the Protein Kinase C Assay Kit) in BGG/phosphate buffer (pH7.4) with 0.02% NaN3.
The results were fitted to a curve using the XL-Fit algorithm and […] were calculated for each fitted curve, again using the XL-Fit algorithm.

[3] abbreviates: compounds of Formula XIV, Table 3.
Where [4] appears, read: Table 2, compounds of Formula XIII.

The source of these data is US20100168102A9, “Amide Derivatives as Kinase Inhibitors” (Devgen NV, priority 2005, published 2010).

A word on the IC50: it is the concentration needed to halve the response being measured.

Read-outs that look alike come from different tables or passages of the source.

T1 sequence (O75116 11-552 limits assumed): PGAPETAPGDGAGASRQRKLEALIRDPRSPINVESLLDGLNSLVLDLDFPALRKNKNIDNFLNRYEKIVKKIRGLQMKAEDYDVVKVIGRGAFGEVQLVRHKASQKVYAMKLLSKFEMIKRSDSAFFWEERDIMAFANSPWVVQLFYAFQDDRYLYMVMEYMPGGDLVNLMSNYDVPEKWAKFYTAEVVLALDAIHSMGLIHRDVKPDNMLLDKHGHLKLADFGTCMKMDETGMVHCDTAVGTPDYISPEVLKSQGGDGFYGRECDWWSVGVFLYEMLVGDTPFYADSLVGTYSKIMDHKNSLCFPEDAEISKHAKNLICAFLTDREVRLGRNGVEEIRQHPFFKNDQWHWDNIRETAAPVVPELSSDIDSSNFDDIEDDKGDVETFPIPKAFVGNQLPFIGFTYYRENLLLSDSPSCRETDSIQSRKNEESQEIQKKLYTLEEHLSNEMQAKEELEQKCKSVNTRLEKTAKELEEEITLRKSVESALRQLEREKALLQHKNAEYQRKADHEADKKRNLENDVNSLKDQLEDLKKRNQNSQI

On to “4-(1-Amino-2-{[2-(4- hydroxy-3-nitro-phenyl)- acetyl]-methyl- amino]-ethyl)- N-pyridin-4-yl-benzamide [Compound 439]”, for which the figures for the IC50 in experiment [1] and in experiment [2] were 0.05 to 0.5 µM and 5 to 50 µM, respectively.
Taken in the same sequence, the figures for “4-(1-Amino-2-{[2-(4- trifluoromethyl-phenyl)- acetyl]-methyl- amino}-ethyl)- N-pyridin-4-yl-benzamide [Compound 458]” were 0.5 to 5 µM and 5 to 50 µM.
Regarding “4-(1-Amino-2-{[2-(4-bromo- phenyl)-acetyl]-methyl- amino}-ethyl)- N-pyridin-4-yl-benzamide [Compound 457]”, the IC50 in experiment [1] lay in the range of 0.5 to 5 µM; in experiment [2] it was 5 to 50 µM.
Turning to “4-(1-Amino-2-{[2-(4-chloro- phenyl)-3-methyl-butyryl]- methyl- amino}-ethyl)- N-pyridin-4-yl-benzamide [Compound 461]”, the IC50 lay within 0.5 to 5 µM in experiment [1] and 5 to 50 µM in experiment [2].
Taken in the same sequence, the figures for “4-(1-Amino-2-{[2-(4-chloro- phenyl)-acetyl]-methyl- amino}-ethyl)- N-pyridin-4-yl-benzamide [Compound 460]” were 0.5 to 5 µM and 5 to 50 µM.
As for “4-(1-Amino-2-{[2-(4-fluoro- phenyl)-acetyl]-methyl- amino}-ethyl)- N-pyridin-4-yl-benzamide [Compound 471]”, the IC50 in experiment [1] is 0.5 to 5 µM; in experiment [2] it was 5 to 50 µM.
Take “4-(1-Amino-2-{[2-(5-bromo- pyridin-3-yl)-acetyl]-methyl- amino}-ethyl)- N-pyridin-4-yl-benzamide [Compound 442]”: the half-maximal inhibitory concentration (IC50) in experiment [1] is 0.5 to 5 µM; in experiment [2] it was 5 to 50 µM.
With “4-(1-Amino-2-{methyl-[2-(2- phenyl-thiazol-4-yl)-acetyl]- amino}-ethyl)- N-pyridin-4-yl-benzamide [Compound 445]”, the IC50 in experiment [1] was 0.5 to 5 µM; in experiment [2], 5 to 50 µM.
“4-(1-amino-2- cyclohexylcarbamoyl-ethyl)- N-pyridin-4-yl-benzamide [Compound 172]”: the IC50 lay within 0.05 to 0.5 µM in experiment [1] (setting [3]) and 0.5 to 5 µM in experiment [2] (setting [3]).
As to “4-(1-amino-2-benzoylamino-ethyl)- N-pyridin-4-yl-benzamide [Compound 69]”, the IC50 in experiment [1] (setting [4]) was in the range of 0.05 to 0.5 µM; in experiment [2] (setting [4]) it was 0.5 to 5 µM.
For the substance “4-[1-Amino-2- (benzo[1,3]dioxol-5-yl- ethylcarbamoyl)-ethyl]-N- pyridin-4-yl-benzamide [Compound 296]”, the IC50 in experiment [1] (setting [3]) was in the range of 0.05 to 0.5 µM; in experiment [2] (setting [3]), 5 to 50 µM.
Taken in the same sequence, the figures for “4-[1-Amino-2-(1-(R)-p-tolyl- propylcarbamoyl)-ethyl]-N- pyridin-4-yl-benzamide [Compound 220]” were 0.05 to 0.5 µM and 0.5 to 5 µM.
Taken in the same sequence, the figures for “4-[1-Amino-2-(1-(S)-p-tolyl- propylcarbamoyl)-ethyl]-N- pyridin-4-yl-benzamide [Compound 219]” were 0.05 to 0.5 µM and 0.5 to 5 µM.
Taken in the same sequence, the figures for “4-[1-Amino-2-(2,4- dimethoxy- benzylcarbamoyl)-ethyl]- N-pyridin-4-yl-benzamide [Compound 241]” were 0.05 to 0.5 µM and 0.5 to 5 µM.
Regarding “4-[1-Amino-2-(2-ethoxy- benzylcarbamoyl)-ethyl]- N-pyridin-4-yl-benzamide [Compound 237]”, the IC50 in experiment [1] (setting [3]) lay in the range of 0.05 to 0.5 µM; in experiment [2] (setting [3]) it was 0.5 to 5 µM.
Taken in the same sequence, the figures for “4-[1-Amino-2-(2-methoxy- benzylcarbamoyl)-ethyl]- N-pyridin-4-yl-benzamide [Compound 236]” were 0.05 to 0.5 µM and 0.5 to 5 µM.
Taken in the same sequence, the figures for “4-[1-Amino-2-(3,4-dichloro- 6-methyl-benzylcarbamoyl)- ethyl}-N-pyridin-4-yl- benzamide [Compound 254]” were 0.05 to 0.5 µM and 0.5 to 5 µM.
Consider “4-[1-Amino-2-(4-thiophen-2- yl-benzylcarbamoyl)-ethyl]- N-pyridin-4-yl-benzamide [Compound 235]”, for which the IC50 in experiment [1] (setting [3]) lay within 0.05 to 0.5 µM; in experiment [2] (setting [3]), 5 to 50 µM.
Taken in the same sequence, the figures for “4-[1-Amino-2-(benzyl- phenethyl-carbamoyl)-ethyl]- N-pyridin-4-yl-benzamide [Compound 226]” were 0.05 to 0.5 µM and 0.5 to 5 µM.
For “4-[1-Amino-2-(methyl- phenylacetyl-amino)-ethyl]- N-pyridin-4-yl-benzamide [Compound 420]”, the IC50 in experiment [1] lay within 0.5 to 5 µM; in experiment [2] it was 5 to 50 µM.
Consider “4-[1-Amino-2-(phenethyl- phenyl-carbamoyl)-ethyl]-N- pyridin-4-yl-benzamide [Compound 286]”, for which the IC50 is 0.05 to 0.5 µM in experiment [1] (setting [3]) and 0.5 to 5 µM in experiment [2] (setting [3]).
As for “4-[1-amino-2-(2-morpholin- 4-yl-ethylcarbamoyl)-ethyl]- N-pyridin-4-yl-benzamide [Compound 177]”, the IC50 in experiment [1] (setting [3]) was in the range of 0.05 to 0.5 µM; in experiment [2] (setting [3]) it was 5 to 50 µM.
Take “4-[1-amino-2-(2-pyrazol-1-yl- ethylcarbamoyl)-ethyl]-N- pyridin-4-yl-benzamide [Compound 312]”: the IC50 in experiment [1] (setting [3]) lay in the range of 0.05 to 0.5 µM; in experiment [2] (setting [3]) it was 0.5 to 5 µM.
Taken in the same sequence, the figures for “4-[1-amino-2-(4-methyl- cyclohexylcarbamoyl)-ethyl]- N-pyridin-4-yl-benzamide [Compound 173]” were 0.05 to 0.5 µM and 0.5 to 5 µM.
Turning to “4-[1-amino-2-(N′-butyl- hydrazinocarbonyl)-ethyl]-N- pyridin-4-yl-benzamide [Compound 324]”, the IC50 is 0.05 to 0.5 µM in experiment [1] (setting [3]) and 0.5 to 5 µM in experiment [2] (setting [3]).
Taken in the same sequence, the figures for “4-[1-amino-2-(cyclopropyl- methylcarbamoyl)-ethyl]-N- pyridin-4-yl-benzamide [Compound 171]” were 0.05 to 0.5 µM and 0.5 to 5 µM.
As to “4-{1-Amino-2- [(benzo[1,3]dioxol-5- ylmethyl)-carbamoyl]-ethyl}- N-pyridin-4-yl-benzamide [Compound 245]”, the IC50 is 0.05 to 0.5 µM in experiment [1] (setting [3]) and 0.5 to 5 µM in experiment [2] (setting [3]).
Taken in the same sequence, the figures for “4-{1-Amino-2-[2-(9H-fluoren- 2-yl)-ethylcarbamoyl]-ethyl}- N-pyridin-4-yl-benzamide [Compound 318]” were 0.05 to 0.5 µM and 5 to 50 µM.
For “4-{1-Amino-2-[(2-1H-indol-3- yl-acetyl)-methyl- amino]-ethyl}- N-pyridin-4-yl-benzamide [Compound 443]”, the IC50 in experiment [1] fell in the range of 0.5 to 5 µM; in experiment [2], 5 to 50 µM.
